# Source: patent publication US8771733B2, “Pharmaceutical composition containing an anti-nucleating agent” (Merck Sharp & Dohme Corp., priority 2004, dated 2014)
# Counter-ions that a name gives are not always drawn.
# Columns and labels:
# [1] = Hygroscopicity (vapor sorption analysis); type: physicochemical
# Experimental: Hygroscopicity data was obtained on a VTI Symmetrical Vapor Sorption Analyzer Model SGA-1. Data was collected at room temperature from 5-95% relative humidity and back, 5% relative humidity change per step. Equilibrium conditions were 0.01 weight percent change in 5 minutes with a maximum equilibration time of 180 minutes.
# [2] = In vitro dissolution studies with bulk drug and granules at 37° C.; type: physicochemical; details: dissolution times of 60 to 180 minutes
# Experimental: The dissolution properties of tablets prepared in the manner described in Part A of Example 3 (i.e., tablets containing 100 mg of Compound A on a free phenol basis and 0, 5, 10 or 15 wt. % HPMC) were tested in the following manner: Two tablets containing 0, 5, 10, or 15 wt. % HPMC were added to a USP Type II dissolution vessel containing 500 mL of 0.01 N HCl (pH=2) as the dissolution medium (ambient temperature). After the tablets were allowed to sink to the bottom of the vessel, the medium was stirred at 100 rpm for 60 minutes and then at 150 rpm for up to an additional 120 minutes. Samples (5 mL) were removed from medium at 5, 10, 15, 20, 30, 60, 90 and 120 minutes and at the conclusion of the test (180 minutes). Each sample was diluted 1:1 with 50:50 (volume:volume) acetonitrile:water, and then analyzed via HPLC or W spectrophotometry to determine the concentration of Compound A in the solution. (Note: The HPLC and UV methods were determined to be equivalent; the choice of method for a particular test was based on such factors as equipment availability.)
# In vitro dissolution studies similar to the study described above, but conducted with unformulated bulk Compound A K salt and formulated bulk in granules and conducted at 37° C.
structure (smiles),measurement,setting,value
Cc1nnc(C(=O)NC(C)(C)c2nc(C(=O)NCc3ccc(F)cc3)c(O)c(=O)n2C)o1 [Compound A K salt],weight when equilibrated back down to 5% RH,"[1]; 5% RH, after 95% RH",returned back to approximately its dry weight
same,weight increase when equilibrated at 95% RH,[1]; 95% RH at 25° C.,1.8%
same,XRPD analysis of the material after the hygroscopicity experiment (phase),[1]; after 5-95% RH and back,had not changed phases
same,enhancement in drug solubility in the presence of HPMC versus absence of HPMC,[2],10 fold
